Measured values reported in US8183238B2, “Bicyclic and tricyclic compounds as KAT II inhibitors” (priority 2009, dated 2012).
Like-named read-outs stand apart in the source and are kept apart here.

Legend:
[1] = Prodrug in vivo pharmacokinetics in dogs (plasma, LC-MS-MS); set-up: species or system Dog (Beagle); settings: Beagle, dog, in vivo, po, 1 mg/kg
Experimental: Test substances (Examples 4 and 71-73) were administered by oral gavage to groups of two dogs. Example 71 was also administered intravenously.
Blood samples were taken at various times after administration and submitted to analysis for the parent drug (Example 71) and pro-drug (Examples 72 and 73) using an LC-MS-MS assay. Pharmacokinetic parameters derived from the plasma analytical data were determined using Watson LIMS 7.2.003 (Thermo Fisher Scientific, Waltham, Mass.). The results are given in FIG. 1 and Tables 8, 9, 10, and 11.

[2] = Prodrug in vivo pharmacokinetics in monkeys (plasma, LC-MS-MS); settings: Cynomolgus, cynomolgus monkey, iv, 0.3 mg/kg, plasma exposure of Example 4 in monkeys following intravenous administration of Example 4 at 0.3 mg/kg
[3] = as above; set-up: species or system Monkey (Cynomolgus); settings: Example 4 in monkey plasma after oral Example 4 (10 mg/kg active); for Cmax / Tmax / half-life / AUC: Cynomolgus, cynomolgus monkey, plasma, po, 10 mg/kg; for F: calculated using IV AUC of 265 ng · h/mL
Experimental: Test substances (Examples 4 and 71-73) were administered by oral gavage to groups of two monkeys.
Blood samples were taken at various times after administration and submitted to analysis for the parent drug (Example 4 and Example 71) and pro-drug (Examples 72 and 73) using an LC-MS-MS assay. […] Pharmacokinetic parameters derived from the plasma analytical data were determined using Watson LIMS 7.2.003 (Thermo Fisher Scientific, Waltham, Mass.). The results are given in FIG. 2 and Tables 13, 14, and 15.

[4] = target: human KAT II (hKAT II) enzyme (Homo sapiens, UniProt Q8N5Z0); assay: KAT II Inhibition Spectra Assay; format: biochemical; settings: Table 5; hKAT II, decrease in OD370, 37° C., 15-20 h; read-out: KATII IC50
Outline: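 hKAT II (15 nM, 3× stock) converts L-kynurenine (3 mM, 3× stock) with α-ketoglutarate and PLP in Tris acetate; 15–20 h at 37 °C. Inhibition of the OD370 decrease read versus DMSO wells across a concentration range gives IC50.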

[5] = Prodrug in vivo pharmacokinetics in rats (plasma, LC-MS-MS); settings: Wistar-Han, rat
Experimental: Test substances (Examples 4, 73, and 366-369) were administered by oral gavage to groups of three rats.
Blood samples were taken at various times after administration and analyzed for the parent drug (Example 4) and prodrugs (Examples 73 and 366-369) using an LC-MS-MS assay. Pharmacokinetic parameters derived from the plasma analytical data were determined using Watson LIMS version 7.2.003 (Thermo Fisher Scientific, Waltham, Mass.).

Chain of human KAT II (hKAT II) enzyme (Q8N5Z0 30-425): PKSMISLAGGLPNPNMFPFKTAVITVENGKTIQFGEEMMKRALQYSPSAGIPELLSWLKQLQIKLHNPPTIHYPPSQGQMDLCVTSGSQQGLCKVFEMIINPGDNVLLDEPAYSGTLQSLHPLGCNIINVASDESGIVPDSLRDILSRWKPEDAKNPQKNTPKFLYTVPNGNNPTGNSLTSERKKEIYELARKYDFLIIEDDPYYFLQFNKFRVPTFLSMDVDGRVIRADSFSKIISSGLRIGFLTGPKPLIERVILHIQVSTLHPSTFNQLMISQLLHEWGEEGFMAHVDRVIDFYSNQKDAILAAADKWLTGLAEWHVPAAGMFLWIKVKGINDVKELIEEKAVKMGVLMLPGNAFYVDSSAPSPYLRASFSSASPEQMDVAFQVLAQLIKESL

Structure (SMILES): N[C@H]1Cc2ccccc2N(O)C1=O [Example 4, (3S)-3-amino-1-hydroxy-3,4-dihydroquinolin-2(1H)-one]
- AUC increase vs. oral administration of Ex. 4 [1]: 1.0
- AUC [2]: 265 ng·h/mL
- Cmax ([3]; Mean): 220 ng/mL
- Tmax ([3]; Mean): 41.4 min
- half-life ([3]; Mean): 43.8 min
- AUC ([3]; Mean, read-out: AUC): 181 ng·h/mL
- AUC ([3]; Mean, read-out: AUC Extrap): 186 ng·h/mL
- Cmax ([3]; Monkey 1): 200 ng/mL
- Tmax ([3]; Monkey 1): 60 min
- half-life ([3]; Monkey 1): 46.8 min
- AUC ([3]; Monkey 1, read-out: AUC): 184 ng·h/mL
- AUC ([3]; Monkey 1, read-out: AUC Extrap): 188 ng·h/mL
- Cmax ([3]; Monkey 2): 340 ng/mL
- Tmax ([3]; Monkey 2): 15 min
- half-life ([3]; Monkey 2): 49.2 min
- AUC ([3]; Monkey 2, read-out: AUC): 239 ng·h/mL
- AUC ([3]; Monkey 2, read-out: AUC Extrap): 247 ng·h/mL
- Cmax ([3]; Monkey 3): 206 ng/mL
- Tmax ([3]; Monkey 3): 30 min
- half-life ([3]; Monkey 3): 40.8 min
- AUC ([3]; Monkey 3, read-out: AUC): 141 ng·h/mL
- AUC ([3]; Monkey 3, read-out: AUC Extrap): 144 ng·h/mL
- Cmax ([3]; Monkey 4): 133 ng/mL
- Tmax ([3]; Monkey 4): 60 min
- half-life ([3]; Monkey 4): 37.8 min
- AUC ([3]; Monkey 4, read-out: AUC): 159 ng·h/mL
- AUC ([3]; Monkey 4, read-out: AUC Extrap): 163 ng·h/mL
- % AUC Extrap ([3]; Mean): 2.46%
- % AUC Extrap ([3]; Monkey 1): 2.28%
- % AUC Extrap ([3]; Monkey 2): 3.05%
- % AUC Extrap ([3]; Monkey 3): 1.96%
- % AUC Extrap ([3]; Monkey 4): 2.56%
- F ([3]; Mean): 2.1%
- F ([3]; Monkey 1): 2.1%
- F ([3]; Monkey 2): 2.8%
- F ([3]; Monkey 3): 1.6%
- F ([3]; Monkey 4): 1.8%
- IC50 [4]: 37.5 nM
- AUC increase vs. oral administration of Ex. 4 [5]: 1.0
